“Also recorded” adds a separate entry of the source.
Tests used:
Type in all cases: biochemical
DNA-PK = target: T1, DNA-PK (Homo sapiens, UniProt P78527); assay: HotSpot kinase screening over 45 different kinases, single dose 10 μM; settings: single dose concentration of 10 μM, 10 μM ATP, compared to enzyme activity in DMSO control
T1 construct: purchased Reaction Biology Corporation
Experimental: (§1) Kinase screening was performed using a “HotSpot” assay platform commercially available from Reaction Biology Corporation. For this kinase screening, reaction buffers were based on 20 mM Hepes (pH 7.5), 10 mM MgCl2, 1 mM EGTA, 0.02% Brij35, 0.02 mg/mL BSA, 0.1 mM Na3VO4, 2 mM DTT, and 1% DMSO, with supplementary factors necessary for respective kinase reactions added thereto. In each enzyme reaction, […] of each kinase was used together with a fresh reaction buffer and appropriate supplementary factors. A solution of each compound in DMSO was added in a suitable concentration to the reaction buffer. Kinase reaction started with the introduction of […] (specific activity […]) and continued for 2 hours at room temperature.
(§2) 1) Screening of Compounds Over 45 Different Kinases
(§3) Each compound was tested twice at a single dose concentration of 10 μM. […] The reaction was performed with 10 μM ATP.

Ros/Ros1 = target: T2, Ros/Ros1 (Homo sapiens, UniProt P08922); assay: as above; settings: single dose concentration of 10 μM, 10 μM ATP
T2 construct: purchased Reaction Biology Corporation
Experimental: as §1, §2, §3

CK1epsilon = target: T3, CK1epsilon (Homo sapiens, UniProt P49674); assay: as above; settings: single dose concentration of 10 μM, 10 μM ATP
T3 construct: purchased Reaction Biology Corporation
Experimental: as §1, §2, §3

RocK1 = target: T4, RocK1 (Homo sapiens, UniProt Q13464); assay: as above; settings: single dose concentration of 10 μM, 10 μM ATP
T4 construct: purchased Reaction Biology Corporation
T4 sequence (Q13464 whole entry): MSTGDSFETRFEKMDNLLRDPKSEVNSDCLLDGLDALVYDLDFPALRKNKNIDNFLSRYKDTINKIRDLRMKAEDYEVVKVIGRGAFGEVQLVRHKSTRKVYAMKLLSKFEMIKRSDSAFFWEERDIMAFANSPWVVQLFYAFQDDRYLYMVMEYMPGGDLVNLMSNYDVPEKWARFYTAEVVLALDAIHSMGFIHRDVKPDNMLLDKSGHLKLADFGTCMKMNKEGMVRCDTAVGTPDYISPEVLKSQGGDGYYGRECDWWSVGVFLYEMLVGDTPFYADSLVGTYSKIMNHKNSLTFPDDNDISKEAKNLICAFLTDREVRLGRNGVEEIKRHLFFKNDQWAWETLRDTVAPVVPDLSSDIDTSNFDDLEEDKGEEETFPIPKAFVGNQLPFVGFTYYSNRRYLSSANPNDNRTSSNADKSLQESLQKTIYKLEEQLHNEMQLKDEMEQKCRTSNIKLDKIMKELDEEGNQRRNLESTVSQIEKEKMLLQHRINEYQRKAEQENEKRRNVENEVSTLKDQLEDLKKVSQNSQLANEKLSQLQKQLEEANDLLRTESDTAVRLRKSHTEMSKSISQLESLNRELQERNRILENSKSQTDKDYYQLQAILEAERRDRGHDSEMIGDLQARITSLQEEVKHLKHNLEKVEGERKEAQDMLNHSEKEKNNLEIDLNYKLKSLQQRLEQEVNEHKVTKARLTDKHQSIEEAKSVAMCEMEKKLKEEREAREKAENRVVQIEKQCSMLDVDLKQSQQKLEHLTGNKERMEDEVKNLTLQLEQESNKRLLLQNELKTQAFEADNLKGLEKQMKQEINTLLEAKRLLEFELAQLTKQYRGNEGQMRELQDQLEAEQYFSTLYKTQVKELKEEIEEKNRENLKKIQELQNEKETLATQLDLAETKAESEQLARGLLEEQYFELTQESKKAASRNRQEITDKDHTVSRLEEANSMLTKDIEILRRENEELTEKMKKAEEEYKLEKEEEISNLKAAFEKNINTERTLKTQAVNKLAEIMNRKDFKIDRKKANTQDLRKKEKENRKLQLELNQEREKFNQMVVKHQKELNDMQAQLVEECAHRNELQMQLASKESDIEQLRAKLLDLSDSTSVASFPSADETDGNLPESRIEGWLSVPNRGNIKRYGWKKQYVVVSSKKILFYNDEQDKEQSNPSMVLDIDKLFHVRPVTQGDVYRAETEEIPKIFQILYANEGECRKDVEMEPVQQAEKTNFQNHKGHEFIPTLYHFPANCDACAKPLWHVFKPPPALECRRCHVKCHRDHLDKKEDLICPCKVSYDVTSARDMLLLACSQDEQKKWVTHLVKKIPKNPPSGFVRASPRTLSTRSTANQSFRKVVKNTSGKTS
Experimental: as §1, §2, §3

EGFR = target: T5, EGFR (Homo sapiens, UniProt P00533); assay: as above; settings: single dose concentration of 10 μM, 10 μM ATP
T5 construct: purchased Reaction Biology Corporation
T5 sequence (P00533 25-1210): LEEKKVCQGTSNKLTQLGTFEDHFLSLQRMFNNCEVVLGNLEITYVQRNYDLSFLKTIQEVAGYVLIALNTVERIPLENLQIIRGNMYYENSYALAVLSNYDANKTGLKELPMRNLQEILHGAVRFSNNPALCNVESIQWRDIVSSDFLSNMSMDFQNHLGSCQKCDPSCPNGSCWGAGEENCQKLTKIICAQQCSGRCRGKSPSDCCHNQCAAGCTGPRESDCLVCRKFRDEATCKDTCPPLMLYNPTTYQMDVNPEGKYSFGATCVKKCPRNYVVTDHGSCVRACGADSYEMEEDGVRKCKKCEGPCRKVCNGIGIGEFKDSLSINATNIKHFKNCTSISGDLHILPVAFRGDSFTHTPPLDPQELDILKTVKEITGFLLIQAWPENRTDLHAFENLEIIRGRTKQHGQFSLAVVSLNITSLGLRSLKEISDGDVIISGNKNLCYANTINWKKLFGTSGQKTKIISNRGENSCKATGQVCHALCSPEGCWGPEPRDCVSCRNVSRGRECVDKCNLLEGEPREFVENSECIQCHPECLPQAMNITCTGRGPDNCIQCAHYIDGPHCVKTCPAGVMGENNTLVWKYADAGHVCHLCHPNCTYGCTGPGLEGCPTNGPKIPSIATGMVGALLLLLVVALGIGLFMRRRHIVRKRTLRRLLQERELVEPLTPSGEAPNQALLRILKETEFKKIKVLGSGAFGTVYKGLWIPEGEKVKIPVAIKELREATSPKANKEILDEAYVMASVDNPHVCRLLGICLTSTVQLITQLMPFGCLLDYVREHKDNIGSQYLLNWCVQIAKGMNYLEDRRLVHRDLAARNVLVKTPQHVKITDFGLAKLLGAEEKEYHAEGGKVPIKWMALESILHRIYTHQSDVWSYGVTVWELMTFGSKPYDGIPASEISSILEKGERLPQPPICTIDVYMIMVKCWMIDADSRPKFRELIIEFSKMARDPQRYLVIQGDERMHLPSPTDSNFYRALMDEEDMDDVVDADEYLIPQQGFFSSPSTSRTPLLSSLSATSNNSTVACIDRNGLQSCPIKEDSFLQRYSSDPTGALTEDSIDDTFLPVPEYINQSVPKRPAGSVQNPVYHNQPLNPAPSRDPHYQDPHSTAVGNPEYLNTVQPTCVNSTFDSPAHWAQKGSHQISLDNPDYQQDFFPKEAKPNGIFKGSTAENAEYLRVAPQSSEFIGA
Experimental: as §1, §2, §3

p70S6K = target: T6, p70S6K (Homo sapiens, UniProt P23443); assay: as above; settings: single dose concentration of 10 μM, 10 μM ATP
T6 construct: purchased Reaction Biology Corporation
Experimental: as §1, §2, §3

FGFR1 = target: T7, FGFR1 (Homo sapiens, UniProt P11362); assay: as above; settings: single dose concentration of 10 μM, 10 μM ATP
T7 construct: purchased Reaction Biology Corporation
Experimental: as §1, §2, §3

ABL1 = target: T8, ABL1 (Homo sapiens, UniProt P00519); assay: as above; settings: single dose concentration of 10 μM, 10 μM ATP
T8 construct: purchased Reaction Biology Corporation
Experimental: as §1, §2, §3

AKT1 (dPH, S473D) = target: T9, AKT1 (dPH, S473D) (Homo sapiens, UniProt P31749, S473D); assay: as above; settings: single dose concentration of 10 μM, 10 μM ATP
T9 construct: AKT1 (dPH, S473D); purchased Reaction Biology Corporation
T9 sequence (P31749 118-480 S473D limits assumed): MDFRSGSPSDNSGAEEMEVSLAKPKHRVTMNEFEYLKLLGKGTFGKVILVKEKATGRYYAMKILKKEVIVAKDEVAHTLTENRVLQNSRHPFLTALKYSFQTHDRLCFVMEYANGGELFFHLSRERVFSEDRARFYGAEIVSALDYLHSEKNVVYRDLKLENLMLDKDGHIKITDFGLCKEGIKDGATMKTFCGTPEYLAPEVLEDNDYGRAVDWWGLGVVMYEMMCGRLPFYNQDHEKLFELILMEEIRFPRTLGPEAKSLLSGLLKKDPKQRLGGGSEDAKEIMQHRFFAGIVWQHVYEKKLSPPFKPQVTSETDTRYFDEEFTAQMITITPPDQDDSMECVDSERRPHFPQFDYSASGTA
Experimental: as §1, §2, §3

FGR = target: T10, FGR (Homo sapiens, UniProt P09769); assay: as above; settings: single dose concentration of 10 μM, 10 μM ATP
T10 construct: purchased Reaction Biology Corporation
T10 sequence (P09769 whole entry): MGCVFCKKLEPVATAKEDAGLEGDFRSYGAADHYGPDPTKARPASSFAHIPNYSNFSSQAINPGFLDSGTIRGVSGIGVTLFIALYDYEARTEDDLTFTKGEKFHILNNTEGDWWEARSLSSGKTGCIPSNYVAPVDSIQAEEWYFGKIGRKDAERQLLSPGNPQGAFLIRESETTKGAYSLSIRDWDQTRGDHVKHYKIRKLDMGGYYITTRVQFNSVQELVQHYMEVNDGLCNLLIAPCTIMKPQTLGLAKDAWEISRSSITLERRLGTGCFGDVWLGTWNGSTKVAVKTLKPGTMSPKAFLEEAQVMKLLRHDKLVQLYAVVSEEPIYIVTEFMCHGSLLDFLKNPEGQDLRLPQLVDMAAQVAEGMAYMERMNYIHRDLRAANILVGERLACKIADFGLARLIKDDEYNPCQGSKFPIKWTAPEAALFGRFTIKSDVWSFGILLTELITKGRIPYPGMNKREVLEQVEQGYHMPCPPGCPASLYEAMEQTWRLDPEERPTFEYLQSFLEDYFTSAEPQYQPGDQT
Experimental: as §1, §2, §3

MST4 = target: T11, MST4 (Homo sapiens, UniProt Q9P289); assay: as above; settings: single dose concentration of 10 μM, 10 μM ATP
T11 construct: purchased Reaction Biology Corporation
Experimental: as §1, §2, §3

PAK4 = target: T12, PAK4 (Homo sapiens, UniProt O96013); assay: as above; settings: single dose concentration of 10 μM, 10 μM ATP
T12 construct: purchased Reaction Biology Corporation
T12 sequence (O96013 whole entry): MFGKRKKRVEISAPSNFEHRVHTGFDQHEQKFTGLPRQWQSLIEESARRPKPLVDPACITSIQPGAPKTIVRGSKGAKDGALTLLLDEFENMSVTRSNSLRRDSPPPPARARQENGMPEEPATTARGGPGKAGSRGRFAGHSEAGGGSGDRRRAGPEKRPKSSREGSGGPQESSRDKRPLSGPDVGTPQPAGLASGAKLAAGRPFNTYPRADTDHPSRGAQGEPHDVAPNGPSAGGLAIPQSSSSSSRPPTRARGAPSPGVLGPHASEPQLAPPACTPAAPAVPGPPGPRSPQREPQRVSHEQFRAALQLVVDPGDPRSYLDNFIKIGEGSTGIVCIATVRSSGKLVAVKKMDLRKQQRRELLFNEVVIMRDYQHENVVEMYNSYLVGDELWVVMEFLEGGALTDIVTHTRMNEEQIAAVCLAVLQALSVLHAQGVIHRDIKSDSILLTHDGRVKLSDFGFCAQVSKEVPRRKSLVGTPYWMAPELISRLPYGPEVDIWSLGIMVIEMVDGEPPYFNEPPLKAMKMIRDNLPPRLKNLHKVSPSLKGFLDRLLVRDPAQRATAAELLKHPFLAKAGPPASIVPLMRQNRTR
Experimental: as §1, §2, §3

FAK/PTK2 = target: T13, FAK/PTK2 (Homo sapiens, UniProt Q05397); assay: as above; settings: single dose concentration of 10 μM, 10 μM ATP
T13 construct: purchased Reaction Biology Corporation
Experimental: as §1, §2, §3

HIPK1 = target: T14, HIPK1 (Homo sapiens, UniProt Q86Z02); assay: as above; settings: single dose concentration of 10 μM, 10 μM ATP
T14 construct: purchased Reaction Biology Corporation
Experimental: as §1, §2, §3

SYK = target: T15, SYK (Homo sapiens, UniProt P43405); assay: as above; settings: single dose concentration of 10 μM, 10 μM ATP
T15 construct: purchased Reaction Biology Corporation
Experimental: as §1, §2, §3

RON/MST1R = target: T16, RON/MST1R (Homo sapiens, UniProt Q04912); assay: as above; settings: single dose concentration of 10 μM, 10 μM ATP
T16 construct: purchased Reaction Biology Corporation
Experimental: as §1, §2, §3

KDR/VEGFR2 = target: T17, KDR/VEGFR2 (Homo sapiens, UniProt P35968); assay: as above; settings: single dose concentration of 10 μM, 10 μM ATP
T17 construct: purchased Reaction Biology Corporation
Experimental: as §1, §2, §3

TIE2/TEK = target: T18, TIE2/TEK (Homo sapiens, UniProt Q02763); assay: as above; settings: single dose concentration of 10 μM, 10 μM ATP
T18 construct: purchased Reaction Biology Corporation
Experimental: as §1, §2, §3

c-Src = target: T19, c-Src (Homo sapiens, UniProt P12931); assay: as above; settings: single dose concentration of 10 μM, 10 μM ATP
T19 construct: purchased Reaction Biology Corporation
T19 sequence (P12931 whole entry): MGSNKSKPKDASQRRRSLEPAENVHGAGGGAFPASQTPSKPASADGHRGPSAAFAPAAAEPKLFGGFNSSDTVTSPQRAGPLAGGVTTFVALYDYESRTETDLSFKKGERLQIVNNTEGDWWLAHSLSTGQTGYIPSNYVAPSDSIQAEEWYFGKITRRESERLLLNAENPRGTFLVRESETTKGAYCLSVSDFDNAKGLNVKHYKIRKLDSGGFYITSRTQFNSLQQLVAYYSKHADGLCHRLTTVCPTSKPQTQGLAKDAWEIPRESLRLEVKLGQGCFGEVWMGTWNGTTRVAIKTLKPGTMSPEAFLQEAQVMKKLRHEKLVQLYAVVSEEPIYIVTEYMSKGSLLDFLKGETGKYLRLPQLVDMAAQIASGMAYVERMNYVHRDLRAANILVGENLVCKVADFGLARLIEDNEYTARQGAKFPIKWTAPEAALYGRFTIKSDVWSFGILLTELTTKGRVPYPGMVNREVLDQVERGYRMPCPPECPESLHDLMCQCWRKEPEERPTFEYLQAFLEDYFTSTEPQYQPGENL
Experimental: as §1, §2, §3

c-MET = target: T20, c-MET (Homo sapiens, UniProt P08581); assay: as above; settings: single dose concentration of 10 μM, 10 μM ATP
T20 construct: purchased Reaction Biology Corporation
Experimental: as §1, §2, §3

MUSK = target: T21, MUSK (Homo sapiens, UniProt O15146); assay: as above; settings: single dose concentration of 10 μM, 10 μM ATP
T21 construct: purchased Reaction Biology Corporation
Experimental: as §1, §2, §3

P38a/MAPK14 = target: T22, P38a/MAPK14 (Homo sapiens, UniProt Q16539); assay: as above; settings: single dose concentration of 10 μM, 10 μM ATP
T22 construct: purchased Reaction Biology Corporation
T22 sequence (Q16539 whole entry): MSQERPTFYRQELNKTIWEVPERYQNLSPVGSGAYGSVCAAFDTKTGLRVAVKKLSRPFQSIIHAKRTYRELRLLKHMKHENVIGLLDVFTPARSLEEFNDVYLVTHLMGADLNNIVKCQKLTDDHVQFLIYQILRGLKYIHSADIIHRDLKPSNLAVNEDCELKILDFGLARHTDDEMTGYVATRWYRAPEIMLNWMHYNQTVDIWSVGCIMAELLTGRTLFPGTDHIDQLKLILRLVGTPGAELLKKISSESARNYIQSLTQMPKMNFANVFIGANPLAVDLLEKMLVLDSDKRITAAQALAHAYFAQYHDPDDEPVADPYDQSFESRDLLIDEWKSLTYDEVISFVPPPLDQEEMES
Experimental: as §1, §2, §3

IR = target: T23, IR (Homo sapiens, UniProt P06213); assay: as above; settings: single dose concentration of 10 μM, 10 μM ATP
T23 construct: purchased Reaction Biology Corporation
Experimental: as §1, §2, §3

45 different kinases = assay: Kinase selectivity from screening over 45 different kinases
Experimental: as §1, §2, §3

[1] = compared to enzyme activity in DMSO control

Cc1cc(O)cc(-c2nn(CC#N)cc2-c2cc(NC[C@H](C)O)nc(-c3cccnc3)n2)c1 [Example 10, [4-[6-(2(S)-hydroxypropylamino)-2-pyridin-3-yl-pyrimidin-4-yl]-3-(3-hydroxy-5-methylphenyl)-pyrazol-1-yl]acetonitrile]
activity at 10 µM (DNA-PK): 93.4% | inhibition at 10 µM (Ros/Ros1): 93.9% | activity at 10 µM (Ros/Ros1; [1]): 6.08% | inhibition at 10 µM (CK1epsilon): 9.32% | activity at 10 µM (CK1epsilon; [1]): 90.7% | inhibition at 10 µM (RocK1): 11.7% | activity at 10 µM (RocK1; [1]): 88.3% | inhibition at 10 µM (EGFR): -2.23% | activity at 10 µM (EGFR; [1]): 102% | inhibition at 10 µM (p70S6K): 5.79% | activity at 10 µM (p70S6K; [1]): 94.2% | inhibition at 10 µM (FGFR1): -8.05% | activity at 10 µM (FGFR1; [1]): 108% | inhibition at 10 µM (ABL1): 20.4% | activity at 10 µM (ABL1; [1]): 79.6% | inhibition at 10 µM (AKT1 (dPH, S473D)): -2.97% | activity at 10 µM (AKT1 (dPH, S473D); [1]): 103% | inhibition at 10 µM (FGR): 3.34% | activity at 10 µM (FGR; [1]): 96.7% | inhibition at 10 µM (MST4): -1.54% | activity at 10 µM (MST4; [1]): 102% | inhibition at 10 µM (PAK4): 1.37% | activity at 10 µM (PAK4; [1]): 98.6% | inhibition at 10 µM (FAK/PTK2): 3.43% | activity at 10 µM (FAK/PTK2; [1]): 96.6% | inhibition at 10 µM (HIPK1): -3.43% | activity at 10 µM (HIPK1; [1]): 103% | inhibition at 10 µM (SYK): 8.23% | activity at 10 µM (SYK; [1]): 91.8% | inhibition at 10 µM (RON/MST1R): 28.8% | activity at 10 µM (RON/MST1R; [1]): 71.1% | inhibition at 10 µM (KDR/VEGFR2): -5.84% | activity at 10 µM (KDR/VEGFR2; [1]): 106% | inhibition at 10 µM (TIE2/TEK): 8.17% | activity at 10 µM (TIE2/TEK; [1]): 91.8% | inhibition at 10 µM (c-Src): 16.2% | activity at 10 µM (c-Src; [1]): 83.8% | inhibition at 10 µM (c-MET): 5.82% | activity at 10 µM (c-MET; [1]): 94.2% | inhibition at 10 µM (MUSK): -0.42% | activity at 10 µM (MUSK; [1]): 100% | inhibition at 10 µM (P38a/MAPK14): 5.27% | activity at 10 µM (P38a/MAPK14; [1]): 94.7% | inhibition at 10 µM (IR): 7.01% | activity at 10 µM (IR; [1]): 93% | Notes (selectivity for ROS) (45 different kinases): no inhibitory activity against almost all of the tested kinases, except for ROS kinase; also recorded: Selective for ROS

Source: patent US8273880B2, “Pyrazole compounds with inhibitory activity against ROS kinase” (Korea Institute of Science and Technology, priority 2009, dated 2012)
